# Results: patent US12435092B2, “Substituted imidazo[1,2-A]quinazolines as inhibitors of PARG” (858 Therapeutics, Inc., priority 2022, dated 2025)
# Biological target: T1, cellular PARG (Homo sapiens, UniProt Q86W56)
# T1 construct: endogenous in cells; host or cells: HeLa
# Experiment: Nuclear PAR accumulation assay (immunofluorescence high-content imaging)
# Type: cell-based
# Details: HeLa cells, 1 hour compound treatment then MMS 50 μg/mL for an additional hour
# Experimental: Compound IC50 values for inhibition of cellular PARG were determined using an immunofluorescence high-content imaging assay for nuclear PAR accumulation. HeLa cells were plated at 15,000 cells/well in a 96-well plate the day before compound treatment and then treated with varying concentrations of test compound and incubated for 1 hour at 37° C.+5% CO2. Following test compound treatment, methylmethane sulfonate (MMS) was added to a final concentration of 50 μg/mL and the cells were incubated for an additional hour. Following treatment, the cells were fixed with ice cold 95% methanol and the plates sealed and placed at −20° C. for 15 minutes. The cells were then washed once with phosphate buffered saline (PBS) and permeabilized with 0.1% Triton-X 100 for 20 minutes at room temperature. The cells were again washed once with PBS and incubated with an anti-poly-ADP ribose (PAR) monoclonal antibody (Millipore Part #AM80 clone 10H) diluted 1:1,000 in 5% fetal bovine serum +0.1% Tween-20+PBS overnight at 4° C. The cells were then washed three times with PBS before incubation with a fluorescently conjugated goat anti-mouse antibody (Invitrogen A32723) diluted 1:500 in 5% FBS+0.1% Tween-20+PBS for 1 hour at room temperature. The cells were again washed three times with PBS and the nuclei labeled by incubating with 1 μg/mL DAPI (4′,6-diamidino-2-phenylindole). Nuclear PAR accumulation was evaluated using high-content fluorescence microscopy. Four fields for each well were acquired at 20× magnification resulting in at least 1,000 cells analyzed per well. Using high-content software (CellReporterXpress) the nuclei were detected and segmented using the DAPI channel and the fluorescence intensity of the PAR-Alexa 488 channel was quantified within the nuclei regions. Both the average intensity per nucleus and percent PAR positive cells were quantified. Percent PAR positive cells were identified by having greater anti-PAR labeling above the threshold set with vehicle DMSO treated control cells. Percent inhibition of PARG by test compounds was calculated by normalizing the data to the 0.1% DMSO and reference compound control values, which represent 0% and 100% inhibition of enzymatic activity, respectively. Concentration-response-curves and IC50 values were generated using four parameter logistic curve fit software.
# T1 sequence (Q86W56 whole entry): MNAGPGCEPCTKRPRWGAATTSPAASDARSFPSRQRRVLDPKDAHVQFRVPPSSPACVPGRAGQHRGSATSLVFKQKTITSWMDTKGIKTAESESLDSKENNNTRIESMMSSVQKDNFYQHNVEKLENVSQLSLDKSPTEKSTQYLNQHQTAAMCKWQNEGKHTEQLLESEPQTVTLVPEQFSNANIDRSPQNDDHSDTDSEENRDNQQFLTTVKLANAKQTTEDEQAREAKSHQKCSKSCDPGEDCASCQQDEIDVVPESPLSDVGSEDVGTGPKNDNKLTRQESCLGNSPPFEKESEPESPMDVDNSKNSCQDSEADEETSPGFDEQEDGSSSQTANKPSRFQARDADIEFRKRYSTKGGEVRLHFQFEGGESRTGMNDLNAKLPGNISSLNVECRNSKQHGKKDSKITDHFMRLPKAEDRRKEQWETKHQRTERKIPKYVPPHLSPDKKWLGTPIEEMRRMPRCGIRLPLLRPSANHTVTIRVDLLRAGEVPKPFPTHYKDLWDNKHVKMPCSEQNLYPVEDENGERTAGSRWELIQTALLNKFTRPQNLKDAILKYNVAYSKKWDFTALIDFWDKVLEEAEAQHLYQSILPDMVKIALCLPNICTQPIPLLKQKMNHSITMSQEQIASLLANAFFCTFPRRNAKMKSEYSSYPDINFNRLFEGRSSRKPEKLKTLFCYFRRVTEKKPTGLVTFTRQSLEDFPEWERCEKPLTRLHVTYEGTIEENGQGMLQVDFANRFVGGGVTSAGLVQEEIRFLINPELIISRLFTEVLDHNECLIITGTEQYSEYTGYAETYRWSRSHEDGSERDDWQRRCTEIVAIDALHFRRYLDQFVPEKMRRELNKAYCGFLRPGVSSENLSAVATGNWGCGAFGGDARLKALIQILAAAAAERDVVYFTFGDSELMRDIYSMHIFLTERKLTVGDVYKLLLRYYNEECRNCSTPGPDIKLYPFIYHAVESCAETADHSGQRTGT
compound,measurement,value
"C[C@@H]1CN=C2N(CC3CC(=O)N(C)C3)C(=O)c3cc(S(=O)(=O)NC4(C)CC4)ccc3N21 (single isomer, unassigned) [Example 123]",IC50,1000 to 10000 nM
"CC(c1cnn(C)c1)N1C(=O)c2cc(S(=O)(=O)NC3(C)CC3)ccc2N2C1=NC[C@H]2C (single isomer, unassigned) [Example 125]",IC50,1000 to 10000 nM
"CC(c1cnn(C)c1)N1C(=O)c2cc(S(=O)(=O)NC3(C)CC3)ccc2N2C1=NC[C@H]2C (single isomer, unassigned) [Example 126]",IC50,1000 to 10000 nM
"C[C@@H]1CN=C2N(Cc3cnn(CCO)c3)C(=O)c3cc(S(=O)(=O)NC4(C)CC4)ccc3N21 [Example 1, (R)-4-((1-(2-hydroxyethyl)-1H-pyrazol-4-yl)methyl)-1-methyl-N-(1-methylcyclopropyl)-5-oxo-1,2,4,5-tetrahydroimidazo[1,2-a]quinazoline-7-sulfonamide]",IC50,100 to 1000 nM
"C[C@@H]1CN=C2N(Cc3cnn(C)c3)C(=O)c3cc(S(=O)(=O)NC4(C#N)CC4)ccc3N21 [Example 2, (R)—N-(1-cyanocyclopropyl)-1-methyl-4-((1-methyl-1H-pyrazol-4-yl)methyl)-5-oxo-1,2,4,5-tetrahydroimidazo[1,2-a]quinazoline-7-sulfonamide]",IC50,100 to 1000 nM
"C[C@@H]1CN=C2N(CC3CC3)C(=O)c3cc(S(=O)(=O)NC4(C)CC4)ccc3N21 [Example 3, (R)-4-(cyclopropylmethyl)-1-methyl-N-(1-methylcyclopropyl)-5-oxo-1,2,4,5-tetrahydroimidazo[1,2-a]quinazoline-7-sulfonamide]",IC50,100 to 1000 nM
"C[C@@H]1CN=C2N(Cc3cccnc3)C(=O)c3cc(S(=O)(=O)NC4(C)CC4)ccc3N21 [Example 4, (R)-1-methyl-N-(1-methylcyclopropyl)-5-oxo-4-(pyridin-3-ylmethyl)-1,2,4,5-tetrahydroimidazo[1,2-a]quinazoline-7-sulfonamide]",IC50,100 to 1000 nM
"Cc1cc(CN2C(=O)c3cc(S(=O)(=O)NC4(C)CC4)ccc3N3C2=NC[C@H]3C)n[nH]1 [Example 5, (R)-1-methyl-4-((5-methyl-1H-pyrazol-3-yl)methyl)-N-(1-methylcyclopropyl)-5-oxo-1,2,4,5-tetrahydroimidazo[1,2-a]quinazoline-7-sulfonamide]",IC50,100 to 1000 nM
"C[C@@H]1CN=C2N(Cc3cn[nH]c3)C(=O)c3cc(S(=O)(=O)NC4(C)CC4)ccc3N21 [Example 6, (R)-4-((1H-pyrazol-4-yl)methyl)-1-methyl-N-(1-methylcyclopropyl)-5-oxo-1,2,4,5-tetrahydroimidazo[1,2-a]quinazoline-7-sulfonamide]",IC50,100 to 1000 nM
"Cc1noc(C)c1CN1C(=O)c2cc(S(=O)(=O)NC3(C)CC3)ccc2N2C1=NC[C@H]2C [Example 8, (R)-4-((3,5-dimethylisoxazol-4-yl)methyl)-1-methyl-N-(1-methylcyclopropyl)-5-oxo-1,2,4,5-tetrahydroimidazo[1,2-a]quinazoline-7-sulfonamide]",IC50,≤ 100 nM
"C#C[C@H]1CN=C2N(Cc3cc(C)no3)C(=O)c3cc(S(=O)(=O)NC4(C)CC4)ccc3N21 [Example 9, (S)-1-ethynyl-N-(1-methylcyclopropyl)-4-((3-methylisoxazol-5-yl)methyl)-5-oxo-1,2,4,5-tetrahydroimidazo[1,2-a]quinazoline-7-sulfonamide]",IC50,100 to 1000 nM
"C#C[C@@H]1CN=C2N(Cc3cc(C)no3)C(=O)c3cc(S(=O)(=O)NC4(C)CC4)ccc3N21 [Example 10, (R)-1-ethynyl-N-(1-methylcyclopropyl)-4-((3-methylisoxazol-5-yl)methyl)-5-oxo-1,2,4,5-tetrahydroimidazo[1,2-a]quinazoline-7-sulfonamide]",IC50,≤ 100 nM
"Cc1cc(CN2C(=O)c3cc(S(=O)(=O)NC4(C)CC4)ccc3N3C2=NC[C@@H]3C(C)C)on1 [Example 11, (S)-1-isopropyl-N-(1-methylcyclopropyl)-4-((3-methylisoxazol-5-yl)methyl)-5-oxo-1,2,4,5-tetrahydroimidazo[1,2-a]quinazoline-7-sulfonamide]",IC50,> 10000 nM
